In US12077503B2, “Substituted cyclic amides and their use as herbicides” (FMC CORPORATION, priority 2015, dated 2024):

How the values were obtained:
Type in all cases: in vivo
Kochia (Kochia scoparia) = experiment: Test A preemergence; details: Bassia scoparia, pre-emergence, 240 h
Summary of the method: (§1)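 Visual injury scores from 0, no effect, to 100, complete control, were assigned versus untreated controls roughly 10 d after treatment in the greenhouse. Test chemicals, formulated with surfactant in a non-phytotoxic solvent, were applied to planted seeds as a preemergence soil spray or postemergence to one- to two-leaf plants 2 to 10 cm tall, in loam–sand soil.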

[1] = test system: barnyardgrass (Echinochloa crus-galli); experiment: Test A preemergence; details: Echinochloa crus-galli, pre-emergence, 240 h
Summary of the method: as §1

[2] = test system: giant foxtail (Setaria faberii); experiment: Test A preemergence; details: Setaria faberi, pre-emergence, 240 h
Summary of the method: as §1

[3] = test system: pigweed (Amaranthus retroflexus); experiment: Test A preemergence; details: Amaranthus retroflexus, pre-emergence, 240 h
[4] = test system: ragweed (common ragweed, Ambrosia elatior); experiment: Test A preemergence; details: Ambrosia artemisiifolia, pre-emergence, 240 h
Summary of the method: as §1

[5] = test system: ryegrass, Italian (Italian ryegrass, Lolium multiflorum); experiment: Test A preemergence; details: Lolium multiflorum, pre-emergence, 240 h
Summary of the method: as §1

[6] = test system: blackgrass (Alopecurus myosuroides); experiment: Test A postemergence; details: Alopecurus myosuroides, post-emergence, 240 h, 125 g ai/ha, postemergence, visual injury rating after approximately 10 d; read-out: Blackgrass plant response rating (0 to 100 scale, 0 no effect, 100 complete control)
Summary of the method: as §1

corn (Zea mays) = experiment: Test A postemergence; details: Zea mays, post-emergence, 240 h, 125 g ai/ha, postemergence, visual injury rating after approximately 10 d; read-out: Corn plant response rating (0 to 100 scale, 0 no effect, 100 complete control)
Summary of the method: as §1

[7] = test system: pigweed (Amaranthus retroflexus); experiment: Test A postemergence; details: Amaranthus retroflexus, post-emergence, 240 h, 125 g ai/ha, postemergence, visual injury rating after approximately 10 d; read-out: Pigweed plant response rating (0 to 100 scale, 0 no effect, 100 complete control)
Summary of the method: as §1

[8] = test system: ragweed (common ragweed, Ambrosia elatior); experiment: Test A postemergence; details: Ambrosia artemisiifolia, post-emergence, 240 h, 125 g ai/ha, postemergence, visual injury rating after approximately 10 d; read-out: Ragweed plant response rating (0 to 100 scale, 0 no effect, 100 complete control)
Summary of the method: as §1

[9] = test system: ryegrass, Italian (Italian ryegrass, Lolium multiflorum); experiment: Test A postemergence; details: Lolium multiflorum, post-emergence, 240 h, 125 g ai/ha, postemergence, visual injury rating after approximately 10 d; read-out: Ryegrass, Italian plant response rating (0 to 100 scale, 0 no effect, 100 complete control)
Summary of the method: as §1

[10] = test system: barnyardgrass (Echinochloa crus-galli); experiment: Test B flooded paddy test; details: Echinochloa crus-galli, Flood, 250 g ai/ha; scale of 0 to 100 where 0 is no effect and 100 is complete control; read-out: Barnyardgrass plant response rating
Summary of the method: (§2)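 Compound goes directly into floodwater once pots are flooded 3 cm above soil, targeting plants at two leaves; the water depth is then held for the test duration. Plants sit 13–15 d in a greenhouse and are rated visually, 100 denoting complete control.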

[11] = test system: ducksalad (Heteranthera limosa); experiment: Test B flooded paddy test; details: Heteranthera limosa, Flood, 250 g ai/ha; scale of 0 to 100 where 0 is no effect and 100 is complete control; read-out: Ducksalad plant response rating
Summary of the method: as §2

rice (Oryra sativa) = experiment: Test B flooded paddy test; details: Oryza sativa, Flood, 250 g ai/ha; scale of 0 to 100 where 0 is no effect and 100 is complete control; read-out: Rice plant response rating
Summary of the method: as §2

[12] = test system: sedge, umbrella (small-flower umbrella sedge, Cyperus difformis); experiment: Test B flooded paddy test; details: Cyperus difformis, Flood, 250 g ai/ha; scale of 0 to 100 where 0 is no effect and 100 is complete control; read-out: Sedge, Umbrella plant response rating
Summary of the method: as §2

SMILES: Cc1cc(C)cc([C@H]2CN(C)C(=O)[C@@H]2C(=O)Nc2ccccc2F)c1 [Compound 910]
- pest or weed control at 125 g/ha (Kochia (Kochia scoparia); 125 g ai/ha, preemergence, 0 to 100 scale where 0 is no effect and 100 is complete control, read-out: Kochia plant response rating): 60%
- pest or weed control at 500 g/ha (Kochia (Kochia scoparia); 500 g ai/ha, Preemergence, visual injury vs untreated controls after approximately 10 d, read-out: Kochia plant response rating (0 to 100 scale where 0 is no effect and 100 is complete control)): 90%
- pest or weed control at 125 g/ha ([1]; 125 g ai/ha, preemergence, 0 to 100 scale where 0 is no effect and 100 is complete control, read-out: Barnyardgrass plant response rating): 90%
- pest or weed control at 500 g/ha ([1]; 500 g ai/ha, Preemergence, visual injury vs untreated controls after approximately 10 d, read-out: Barnyardgrass plant response rating (0 to 100 scale where 0 is no effect and 100 is complete control)): 100%
- pest or weed control at 125 g/ha ([2]; 125 g ai/ha, preemergence, 0 to 100 scale where 0 is no effect and 100 is complete control, read-out: Foxtail, Giant plant response rating): 90%
- pest or weed control at 500 g/ha ([2]; 500 g ai/ha, Preemergence, visual injury vs untreated controls after approximately 10 d, read-out: Foxtail, Giant plant response rating (0 to 100 scale where 0 is no effect and 100 is complete control)): 100%
- pest or weed control at 125 g/ha ([3]; 125 g ai/ha, preemergence, 0 to 100 scale where 0 is no effect and 100 is complete control, read-out: Pigweed plant response rating): 0%
- pest or weed control at 500 g/ha ([3]; 500 g ai/ha, Preemergence, visual injury vs untreated controls after approximately 10 d, read-out: Pigweed plant response rating (0 to 100 scale where 0 is no effect and 100 is complete control)): 30%
- pest or weed control at 125 g/ha ([4]; 125 g ai/ha, preemergence, 0 to 100 scale where 0 is no effect and 100 is complete control, read-out: Ragweed plant response rating): 0%
- pest or weed control at 500 g/ha ([4]; 500 g ai/ha, Preemergence, visual injury vs untreated controls after approximately 10 d, read-out: Ragweed plant response rating (0 to 100 scale where 0 is no effect and 100 is complete control)): 0%
- pest or weed control at 125 g/ha ([5]; 125 g ai/ha, preemergence, 0 to 100 scale where 0 is no effect and 100 is complete control, read-out: Ryegrass, Italian plant response rating): 50%
- pest or weed control at 500 g/ha ([5]; 500 g ai/ha, Preemergence, visual injury vs untreated controls after approximately 10 d, read-out: Ryegrass, Italian plant response rating (0 to 100 scale where 0 is no effect and 100 is complete control)): 60%
- pest or weed control at 125 g/ha [6]: 50%
- plant injury at 125 g/ha (corn (Zea mays)): 70%
- pest or weed control at 125 g/ha [7]: 0%
- pest or weed control at 125 g/ha [8]: 10%
- pest or weed control at 125 g/ha [9]: 50%
- pest or weed control at 250 g/ha [10]: 70%
- pest or weed control at 250 g/ha [11]: 85%
- pest or weed control at 250 g/ha (rice (Oryra sativa)): 0%
- pest or weed control at 250 g/ha [12]: 0%
